Where two headings read alike, the source gives them in different places. Bounds are passed on as bounds.

What all share (format): cell-based
Assay [1] has as its target T1, human dopamine transporter/SLC6A3 (DAT) (Homo sapiens, UniProt Q01959).
T1 construct: expressed in transfected cells; host or cells: HEK293
Put plainly: Cellular uptake experiments: [3H]-dopamine reuptake inhibition in transporter-expressing HEK293 cells. Particulars: for IC50: cells stably expressing DAT, [3H]-dopamine 1 µM, screening cut-off 50 µM; for activity on DAT (reuptake inhibition), in words: at 50 µM. How it is done: (§1) Cell culture. Human embryonic kidney (HEK) 293 or SK-N-MC (human neuroblastoma) cells were grown in minimum essential medium with Earle’s salts and L-glutamine, 10% heat-inactivated fetal bovine serum, and 50 mg/L gentamicin. Cells were grown in 100- or 60-mm diameter tissue culture dishes (polystyrene, Falcon) at 37 °C under an atmosphere of 5% CO2/95% air. The human dopamine transporter/SLC6A3 (DAT), noradrenaline transporter/SLC6A2 (NET), or human serotonin transporter/SLC6A4 (SERT) cDNA was stably expressed using methods as described previously.
(§2) Cellular uptake experiments. The transporter-expressing HEK293 cells were seeded in poly-D-lysine-coated 24-well plates (1 × 10^5 cells/well) and, one day later, each well was washed with 0.5 mL uptake buffer and incubated with 0.5 mL buffer containing various concentrations of the drugs. Uptake was started by the addition of [^3H]-dopamine, [^3H]-noradrenaline, or [^3H]-serotonin at a final concentration of 1 µM (specific activity 0.14 Ci/mmol) after 5 min of preincubation. After incubation for 2.5 min (SERT-cells: 5 min) at 25 °C, it was stopped by aspirating the uptake buffer and washing each well twice with 1 mL ice-cold buffer. Nonspecific uptake was determined in the presence of 10 µM mazindol (DAT- and NET-cells) or 10 µM clomipramine (SERT-cells). The radioactivity remaining in each well was determined by incubating with 0.4 mL 1% sodium dodecyl sulphate and transferring this solution into scintillation vials containing 3 mL of scintillation cocktail (Ultima Gold MV, Packard, Dovners Grove, IL, USA). The uptake buffer consisted of (mmol/L): 4 Tris–HCl; 6.25 4-(2-hydroxyethyl)-1-piperazineethanesulfonic acid (HEPES); 120 NaCl; 5 KCl; 1.2 CaCl2; 1.2 MgSO4; 5.6 D-glucose; 0.5 ascorbic acid; pH 7.1.

The target in assay [2] is T2, noradrenaline transporter/SLC6A2 (NET) (Homo sapiens, UniProt P23975).
T2 construct: expressed in transfected cells; host or cells: HEK293
In words: Cellular uptake experiments: [3H]-noradrenaline reuptake inhibition in transporter-expressing HEK293 cells. How it is done: as §1, §2

The target of assay [3] is T3, human serotonin transporter/SLC6A4 (SERT) (Homo sapiens, UniProt P31645).
T3 construct: expressed in transfected cells; host or cells: HEK293
Put plainly: Cellular uptake experiments: [3H]-serotonin reuptake inhibition in transporter-expressing HEK293 cells. How it is done: as §1, §2

Where [4] appears, read: Reuptake Inhibition (IC50 ± SE, µM) DAT.
Where [5] appears, read: Reuptake Inhibition (IC50 ± SE, µM) NET, cells stably expressing NET; [3H]-noradrenaline 1 µM; screening cut-off 50 µM.
Setting [6] is: Reuptake Inhibition (IC50 ± SE, µM) SERT, cells stably expressing SERT; [3H]-serotonin 1 µM; screening cut-off 50 µM.
Setting [7] is: read-out: Reuptake Inhibition (IC50 ± SE, µM) NET; cells stably expressing NET; [3H]-noradrenaline 1 µM; screening cut-off 50 µM.
[8] abbreviates: read-out: Reuptake Inhibition (IC50 ± SE, µM) SERT; cells stably expressing SERT; [3H]-serotonin 1 µM; screening cut-off 50 µM.
[9] abbreviates: read-out: Reuptake Inhibition (IC50 ± SE, µM) DAT.
[10] abbreviates: cells stably expressing NET; [3H]-noradrenaline 1 µM; screening cut-off 50 µM; read-out: Reuptake Inhibition (IC50 ± SE, µM) NET.
Where [11] appears, read: cells stably expressing SERT; [3H]-serotonin 1 µM; screening cut-off 50 µM; read-out: Reuptake Inhibition (IC50 ± SE, µM) SERT.
[12] abbreviates: at 50 µM / tested concentration range.

T1 sequence (Q01959 whole entry): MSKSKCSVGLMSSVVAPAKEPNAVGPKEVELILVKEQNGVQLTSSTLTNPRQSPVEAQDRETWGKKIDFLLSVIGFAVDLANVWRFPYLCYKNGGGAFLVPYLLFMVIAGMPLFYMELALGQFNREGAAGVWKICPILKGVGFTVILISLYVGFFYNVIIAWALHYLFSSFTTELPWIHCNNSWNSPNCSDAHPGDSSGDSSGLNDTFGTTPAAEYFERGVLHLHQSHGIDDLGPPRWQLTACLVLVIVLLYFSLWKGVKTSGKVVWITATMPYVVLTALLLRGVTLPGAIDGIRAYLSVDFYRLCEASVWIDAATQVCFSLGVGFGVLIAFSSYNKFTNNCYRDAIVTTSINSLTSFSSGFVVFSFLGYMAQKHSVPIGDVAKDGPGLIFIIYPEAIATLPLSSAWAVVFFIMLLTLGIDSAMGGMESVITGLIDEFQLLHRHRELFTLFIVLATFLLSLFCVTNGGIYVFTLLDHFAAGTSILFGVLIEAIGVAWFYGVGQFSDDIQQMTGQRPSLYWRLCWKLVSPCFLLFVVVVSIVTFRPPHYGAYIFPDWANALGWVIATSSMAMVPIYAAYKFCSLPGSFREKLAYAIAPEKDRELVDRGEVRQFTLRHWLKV
T2 sequence (P23975 whole entry): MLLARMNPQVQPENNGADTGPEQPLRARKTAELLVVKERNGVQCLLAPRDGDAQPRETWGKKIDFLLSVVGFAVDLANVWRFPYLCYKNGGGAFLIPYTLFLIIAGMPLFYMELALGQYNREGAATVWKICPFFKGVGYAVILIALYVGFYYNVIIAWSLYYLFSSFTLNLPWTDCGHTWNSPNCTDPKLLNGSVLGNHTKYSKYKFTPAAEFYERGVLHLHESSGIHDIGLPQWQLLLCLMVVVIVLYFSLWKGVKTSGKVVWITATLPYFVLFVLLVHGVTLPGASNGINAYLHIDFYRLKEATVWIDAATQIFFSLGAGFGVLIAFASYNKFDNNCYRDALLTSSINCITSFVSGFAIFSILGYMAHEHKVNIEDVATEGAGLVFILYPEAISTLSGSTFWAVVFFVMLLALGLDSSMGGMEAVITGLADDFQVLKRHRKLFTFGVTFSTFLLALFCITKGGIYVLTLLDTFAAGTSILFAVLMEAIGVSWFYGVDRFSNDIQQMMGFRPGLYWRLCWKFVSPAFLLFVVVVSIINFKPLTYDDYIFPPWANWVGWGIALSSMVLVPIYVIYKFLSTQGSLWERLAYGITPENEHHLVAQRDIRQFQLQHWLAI
T3 sequence (P31645 whole entry): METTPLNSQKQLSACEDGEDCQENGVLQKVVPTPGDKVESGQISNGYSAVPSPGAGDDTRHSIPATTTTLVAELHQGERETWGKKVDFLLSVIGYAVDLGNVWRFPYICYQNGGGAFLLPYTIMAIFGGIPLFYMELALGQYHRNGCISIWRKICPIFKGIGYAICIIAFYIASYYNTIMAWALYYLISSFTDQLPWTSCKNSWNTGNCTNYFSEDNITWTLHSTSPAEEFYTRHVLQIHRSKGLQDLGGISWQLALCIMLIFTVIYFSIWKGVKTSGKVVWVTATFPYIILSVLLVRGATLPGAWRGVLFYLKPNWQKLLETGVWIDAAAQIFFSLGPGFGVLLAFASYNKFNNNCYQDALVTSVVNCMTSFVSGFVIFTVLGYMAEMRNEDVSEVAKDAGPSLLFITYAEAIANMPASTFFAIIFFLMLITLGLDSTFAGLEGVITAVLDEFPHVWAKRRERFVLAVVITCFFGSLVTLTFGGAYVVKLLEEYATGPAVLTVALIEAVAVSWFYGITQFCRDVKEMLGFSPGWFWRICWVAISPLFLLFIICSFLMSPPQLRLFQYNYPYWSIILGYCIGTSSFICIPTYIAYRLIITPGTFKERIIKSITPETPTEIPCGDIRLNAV

Turning to `COc1ccccc1[C@H](c1ccccc1)[S@@+]([O-])Cc1cccs1` [Compound 6r, (S,S)-2-((((2-methoxyphenyl)(phenyl)methyl)sulfinyl)methyl)thiophene], the IC50 in assay [1] (setting [4]), in assay [2] (setting [5]) and in assay [3] (setting [6]) was over 50 µM in each case.
On to `COc1cccc(C(c2ccccc2)[S+]([O-])Cc2cccs2)c1` (stereo not drawn) [Compound 6s, 2-((((3-methoxyphenyl)(phenyl)methyl)sulfinyl)methyl)thiophene], for which the IC50 in assay [1] (setting [4]) is 5.41 ± 0.99 µM; in assay [2] (setting [7]), over 50 µM; in assay [3] (setting [6]), 35 ± 3 µM.
Regarding `COc1ccc([C@@H](c2ccccc2)[S@+]([O-])Cc2cccs2)cc1` [Compound 6t, (R,R)-2-((((4-methoxyphenyl)(phenyl)methyl)sulfinyl)methyl)thiophene], the IC50 in assay [1] (setting [4]) is 17 ± 3 µM; in assay [2] (setting [5]) it was over 50 µM; in assay [3] (setting [6]), 11 ± 3 µM.
Take `[O-][S+](Cc1cccs1)C(c1ccc(F)cc1)c1ccc(Cl)cc1` (stereo not drawn) [Compound 6u, 2-((((4-chlorophenyl)(4-fluorophenyl)methyl)sulfinyl)methyl)thiophene]: the IC50 in assay [1] (setting [4]) is 12 ± 2 µM; in assay [2] (setting [7]), over 50 µM; in assay [3] (setting [8]) it was over 50 µM.
As for `[O-][S@+](Cc1cccs1)[C@@H](c1ccccc1)c1ccccc1F` [Compound 7a, (R,S)-2-((((2-fluorophenyl)(phenyl)methyl)sulfinyl)methyl)thiophene], the IC50 in assay [1] (setting [9]) was 8.25 ± 0.16 µM; in assay [2] (setting [10]), over 50 µM; in assay [3] (setting [11]), over 50 µM.
Turning to `[O-][S+](Cc1cccs1)C(c1ccccc1)c1cccc(F)c1` (stereo not drawn) [Compound 7b, 2-((((3-fluorophenyl)(phenyl)methyl)sulfinyl)methyl)thiophene], the IC50 in assay [1] (setting [9]) was 2.3 ± 0.2 µM; in assay [2] (setting [10]), over 50 µM; in assay [3] (setting [11]), over 50 µM.
With `[O-][S+](Cc1cccs1)C(c1ccccc1)c1ccc(F)cc1` (stereo not drawn) [Compound 7c, 2-((((4-fluorophenyl)(phenyl)methyl)sulfinyl)methyl)thiophene], the half-maximal inhibitory concentration (IC50) is 2.1 ± 0.6 µM in assay [1] (setting [9]), over 50 µM in assay [2] (setting [10]) and over 50 µM in assay [3] (setting [11]).
Consider `[O-][S@+](Cc1cccs1)[C@@H](c1ccccc1)c1ccccc1Cl` [Compound 7d, (R,S)-2-((((2-chlorophenyl)(phenyl)methyl)sulfinyl)methyl)thiophene], for which the “activity on DAT (reuptake inhibition), in words” value in assay [1] was “did not achieve ≥50% of radioligand displacement”. Further, the IC50 in assay [1] (setting [9]), in assay [2] (setting [10]) and in assay [3] (setting [11]) was over 50 µM throughout. The “activity on NET (reuptake inhibition), in words” value in assay [2] (setting [12]) is “did not achieve ≥50% of radioligand displacement”. Also, the “activity on SERT (reuptake inhibition), in words” value in assay [3] (setting [12]) is on record as “did not achieve ≥50% of radioligand displacement”.
Consider `[O-][S@@+](Cc1cccs1)[C@@H](c1ccccc1)c1cccc(Cl)c1` [Compound 7e, (S,S)-2-((((3-chlorophenyl)(phenyl)methyl)sulfinyl)methyl)thiophene], for which the IC50 was 0.63 ± 0.17 µM in assay [1] (setting [4]), 29 ± 4 µM in assay [2] (setting [5]) and over 50 µM in assay [3] (setting [6]).
Regarding `[O-][S@@+](Cc1cccs1)[C@@H](c1ccccc1)c1ccc(Cl)cc1` [Compound 7f, (S,S)-2-((((4-chlorophenyl)(phenyl)methyl)sulfinyl)methyl)thiophene], the IC50 is 4 ± 1 µM in assay [1] (setting [4]), over 50 µM in assay [2] (setting [5]) and over 50 µM in assay [3] (setting [6]).
With `[O-][S+](Cc1cccs1)C(c1ccccc1)c1ccccc1Br` (stereo not drawn) [Compound 7g, 2-((((2-bromophenyl)(phenyl)methyl)sulfinyl)methyl)thiophene], the IC50 in assay [1] (setting [4]), in assay [2] (setting [7]) and in assay [3] (setting [8]) was over 50 µM each time. For the same compound, in assay [1], the “activity on DAT (reuptake inhibition), in words” value is “no effect”. Further, the “activity on NET (reuptake inhibition), in words” value in assay [2] (setting [12]) is “no effect”. Moreover, the “activity on SERT (reuptake inhibition), in words” value in assay [3] (setting [12]) is “no effect”.
Consider `[O-][S+](Cc1cccs1)C(c1ccccc1)c1ccccc1I` (stereo not drawn) [Compound 7i, 2-((((2-iodophenyl)(phenyl)methyl)sulfinyl)methyl)thiophene], for which the IC50 in assay [1] (setting [4]) was 28.4 ± 2.8 µM; in assay [2] (setting [7]), over 50 µM; in assay [3] (setting [8]), over 50 µM.
`[O-][S+](Cc1cccs1)C(c1ccccc1)c1cccc(I)c1` (stereo not drawn) [Compound 7j, 2-((((3-iodophenyl)(phenyl)methyl)sulfinyl)methyl)thiophene]: the IC50 in assay [1] (setting [4]) is 1.46 ± 0.06 µM; in assay [2] (setting [7]), over 50 µM; in assay [3] (setting [8]), over 50 µM.
In the case of `[O-][S@@+](Cc1cccs1)[C@@H](c1ccccc1)c1ccc(I)cc1` [Compound 7k, (S,S)-2-((((4-iodophenyl)(phenyl)methyl)sulfinyl)methyl)thiophene], the IC50 in assay [1] (setting [4]), in assay [2] (setting [5]) and in assay [3] (setting [6]) was over 50 µM in each case.
As to `Cc1ccccc1C(c1ccccc1)[S+]([O-])Cc1cccs1` (stereo not drawn) [Compound 7l, 2-(((phenyl(o-tolyl)methyl)sulfinyl)methyl)thiophene], the IC50 is 3.8 ± 0.5 µM in assay [1] (setting [9]), over 50 µM in assay [2] (setting [10]) and over 50 µM in assay [3] (setting [11]).
As to `Cc1cccc([C@H](c2ccccc2)[S@@+]([O-])Cc2cccs2)c1` [Compound 7m, (S,S)-2-(((phenyl(m-tolyl)methyl)sulfinyl)methyl)thiophene], the half-inhibitory concentration (IC50) in assay [1] (setting [4]) is 1.2 ± 0.09 µM; in assay [2] (setting [5]) it was 49 ± 3 µM; in assay [3] (setting [6]), over 50 µM.
Regarding `Cc1ccc([C@H](c2ccccc2)[S@@+]([O-])Cc2cccs2)cc1` [Compound 7n, (S,S)-2-(((phenyl(p-tolyl)methyl)sulfinyl)methyl)thiophene], the IC50 in assay [1] (setting [9]) is 1.63 ± 0.1 µM; in assay [2] (setting [5]) it was over 50 µM; in assay [3] (setting [11]), over 50 µM.
`[O-][S+](Cc1cccs1)C(c1ccccc1)c1ccccc1C(F)(F)F` (stereo not drawn) [Compound 7o, 2-(((phenyl(2-(trifluoromethyl)phenyl)methyl)sulfinyl)methyl)thiophene]: the concentration for half-maximal inhibition (IC50) in assay [1] (setting [4]), in assay [2] (setting [5]) and in assay [3] (setting [8]) was over 50 µM each time.
Take `[O-][S+](Cc1cccs1)C(c1ccccc1)c1cccc(C(F)(F)F)c1` (stereo not drawn) [Compound 7p, 2-(((phenyl(3-(trifluoromethyl)phenyl)methyl)sulfinyl)methyl)thiophene]: the IC50 in assay [1] (setting [4]) is 10 ± 1 µM; in assay [2] (setting [7]), over 50 µM; in assay [3] (setting [6]), over 50 µM.
With `[O-][S+](Cc1cccs1)C(c1ccccc1)c1ccc(C(F)(F)F)cc1` (stereo not drawn) [Compound 7q, 2-(((phenyl(4-(trifluoromethyl)phenyl)methyl)sulfinyl)methyl)thiophene], the concentration for half-maximal inhibition (IC50) in assay [1] (setting [4]) is 24 ± 1 µM; in assay [2] (setting [7]) it was over 50 µM; in assay [3] (setting [6]), over 50 µM.
`COc1ccccc1[C@@H](c1ccccc1)[S@@+]([O-])Cc1cccs1` [Compound 7r, (S,R)-2-((((2-methoxyphenyl)(phenyl)methyl)sulfinyl)methyl)thiophene]: the values for the IC50 in assay [1] (setting [4]), in assay [2] (setting [5]) and in assay [3] (setting [6]) were 1.7 ± 0.1 µM, over 50 µM and over 50 µM, respectively.
As for `COc1cccc(C(c2ccccc2)[S+]([O-])Cc2cccs2)c1` (stereo not drawn) [Compound 7s, 2-((((3-methoxyphenyl)(phenyl)methyl)sulfinyl)methyl)thiophene], the IC50 is 1.56 ± 0.24 µM in assay [1] (setting [4]), over 50 µM in assay [2] (setting [7]) and over 50 µM in assay [3] (setting [6]).
For the compound `COc1ccc([C@@H](c2ccccc2)[S@@+]([O-])Cc2cccs2)cc1` [Compound 7t, (S,R)-2-((((4-methoxyphenyl)(phenyl)methyl)sulfinyl)methyl)thiophene], the half-maximal inhibitory concentration (IC50) in assay [1] (setting [4]) is 15 ± 2 µM; in assay [2] (setting [5]) it was over 50 µM; in assay [3] (setting [6]), over 50 µM.
For the compound `[O-][S+](Cc1cccs1)C(c1ccc(F)cc1)c1ccc(Cl)cc1` (stereo not drawn) [Compound 7u, 2-((((4-chlorophenyl)(4-fluorophenyl)methyl)sulfinyl)methyl)thiophene], the half-maximal inhibitory concentration (IC50) was 6.4 ± 0.4 µM in assay [1] (setting [4]), over 50 µM in assay [2] (setting [7]) and over 50 µM in assay [3] (setting [8]).

A word on the IC50: it is the concentration needed to halve the response being measured.

These data come from article PMC10527105, “Chirality Matters: Fine-Tuning of Novel Monoamine Reuptake Inhibitors Selectivity through Manipulation of Stereochemistry” (Biomolecules, 2023).
